The subject of one assay is FADD−/− Jurkat cells. The assay is described as follows: Necroptosis inhibition assay, TNF-α-induced necroptosis (CellTiter-Glo 2.0). In kind it is cell-based, human. The settings on record: TNF-α 15 ng/mL; for Necroptosis inhibition assay (Rescue %) 1 μM: compound 1 μM; for Necroptosis inhibition assay (Rescue %) 10 μM: compound 10 μM. In a few lines:
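Luminescent ATP measurement gave viability, from which cytotoxicity and necroptosis inhibition rate were derived. Before that, cells (5.0×10^5 cells/mL) saw compound at 0.1, 1 or 10 μM final for 30 minutes at room temperature, then TNF-α (15 ng/mL final) for 20 to 24 hours at 37° C.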

Assay [1] has as its target T1, MLKL (Homo sapiens, UniProt Q8NB16).
T1 sequence (Q8NB16 1-471): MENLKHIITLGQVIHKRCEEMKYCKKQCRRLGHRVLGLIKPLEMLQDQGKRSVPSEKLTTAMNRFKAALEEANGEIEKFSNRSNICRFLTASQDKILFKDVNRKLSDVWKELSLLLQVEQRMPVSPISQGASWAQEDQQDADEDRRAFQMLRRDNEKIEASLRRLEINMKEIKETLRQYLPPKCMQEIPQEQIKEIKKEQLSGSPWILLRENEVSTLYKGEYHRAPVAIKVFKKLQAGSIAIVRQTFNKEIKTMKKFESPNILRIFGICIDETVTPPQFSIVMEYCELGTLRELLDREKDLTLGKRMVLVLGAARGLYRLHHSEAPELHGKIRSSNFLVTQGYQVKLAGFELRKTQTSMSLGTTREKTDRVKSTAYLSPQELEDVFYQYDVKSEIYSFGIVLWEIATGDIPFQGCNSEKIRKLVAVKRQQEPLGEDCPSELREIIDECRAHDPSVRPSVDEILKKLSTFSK
Briefly: Measurement of binding affinity with MLKL receptor (competitive binding assay, Kd). Further details: made in house; host or cells: HEK 293 cell line (T7 phage in E. coli BL21-derived host is also described). In a few lines: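 HEK 293-expressed, DNA-tagged MLKL; ligand beads blocked with biotin and SeaBlock/1% BSA/0.05% Tween 20/1 mM DTT buffer. Cpd from 111× DMSO stock, 0.9% DMSO final. Eluted kinase by qPCR → Kd.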

The target of assay [2] is T1, MLKL. The assay is described as follows: MLKL degradation assay in HepG2 cell line (western blot). In kind it is cell-based. Further details: endogenous in cells; host or cells: HepG2 or HaCaT. The following applies: cell line not given; for Degradation assay (Degradation %) 1 μM: compound 1 μM; for Degradation assay (Degradation %) 10 μM: compound 10 μM. In a few lines:
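Cells seeded, next day medium swapped for compound-containing medium (final 1 or 10 μM) and incubated 20-24 h at 37 °C. Lysates in RIPA with protease/phosphatase inhibitors were protein-matched by BCA, run on SDS-PAGE and immunoblotted for MLKL.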

What is called Kd is the free concentration of one partner at which half of the binding sites on the other are occupied at equilibrium, for simple one-to-one binding. A lower Kd goes with a tighter complex. For the molecule `Nc1ncc(-c2cnn(C3CCN(CCCN4CCN(c5cccc6c5C(=O)N(C5CCC(=O)NC5=O)C6=O)CC4)CC3)c2)nc1C(=O)OC(C(=O)Nc1ccc(F)cc1)c1ccccc1` (stereo not shown) [TDH-245, 2-((4-fluorophenyl)amino)-2-oxo-1-phenylethyl 3-amino-6-(1-(1-(3-(4-(2-(2,6-dioxopiperidin-3-yl)-1,3-dioxoisoindolin-4-yl)piperazin-1-yl)propyl)piperidin-4-yl)-1H-pyrazol-4-yl)pyrazine-2-carboxylate], in the assay on FADD−/− Jurkat cells, the “Necroptosis inhibition assay (Rescue %) 1 μM” value amounted to 65.75% and the “Necroptosis inhibition assay (Rescue %) 10 μM” value came to 14.51%. This molecule also returned a Kd at MLKL [1] of 3.6 nM. For the same molecule, on MLKL [2], the “Degradation assay (Degradation %) 1 μM” value was 67.67% and the “Degradation assay (Degradation %) 10 μM” value is 62.75%.

Consider `Nc1ncc(-c2cnn(C3CCN(C(=O)C4CCN(C(=O)CCc5cccc6c5CN(C5CCC(=O)NC5=O)C6=O)CC4)CC3)c2)nc1C(=O)O[C@@H](C(=O)Nc1ccc(F)cc1)c1ccccc1` (stereo partly drawn) [TDH-388, (R)-2-((4-fluorophenyl)amino)-2-oxo-1-phenylethyl 3-amino-6-(1-(1-(1-(3-(2-(2,6-dioxopiperidin-3-yl)-1-oxoisoindolin-4-yl)propanoyl)piperidine-4-carbonyl)piperidin-4-yl)-1H-pyrazol-4-yl)pyrazine-2-carboxylate], for which, in the assay with FADD−/− Jurkat cells, the “Necroptosis inhibition assay (Rescue %) 1 μM” value is on record as 22.66% and the “Necroptosis inhibition assay (Rescue %) 10 μM” value stood at 22.49%. The molecule further returned a dissociation constant Kd at MLKL [1] of 2.3 nM. Besides, at MLKL [2], the “Degradation assay (Degradation %) 1 μM” value was 68.53% and the “Degradation assay (Degradation %) 10 μM” value amounted to 80.04%.

In the case of `Nc1ncc(-c2cnn(C3CCN(CCC4CCN(C(=O)CNc5ccc6nnn(C7CCC(=O)NC7=O)c(=O)c6c5)CC4)CC3)c2)nc1C(=O)OC(C(=O)Nc1ccc(F)cc1)c1ccccc1` (stereo not shown) [TDH-292, 2-((4-fluorophenyl)amino)-2-oxo-1-phenylethyl 3-amino-6-(1-(1-(2-(1-((3-(2,6-dioxopiperidin-3-yl)-4-oxo-3,4-dihydrobenzo[d][1,2,3]triazin-6-yl)glycyl)piperidin-4-yl)ethyl)piperidin-4-yl)-1H-pyrazol-4-yl)pyrazine-2-carboxylate], in the assay on FADD−/− Jurkat cells, the “Necroptosis inhibition assay (Rescue %) 1 μM” value stood at 78.15% and the “Necroptosis inhibition assay (Rescue %) 10 μM” value worked out at 73.02%. In addition, binding on MLKL [1] was characterised by a dissociation constant (Kd) of 2.3 nM. In addition, on MLKL [2], the “Degradation assay (Degradation %) 1 μM” value is listed as 79.96% and the “Degradation assay (Degradation %) 10 μM” value came to 81.68%.

Regarding `Nc1ncc(-c2cnn(C3CCN(C(=O)CC4CCN(c5ccc6c(c5)C(=O)N(C5CCC(=O)NC5=O)C6=O)CC4)CC3)c2)nc1C(=O)O[C@@H](C(=O)Nc1ccc(F)cc1)c1ccccc1` (stereo partly drawn) [TDH-344, (R)-2-((4-fluorophenyl)amino)-2-oxo-1-phenylethyl 3-amino-6-(1-(1-(2-(1-(2-(2,6-dioxopiperidin-3-yl)-1,3-dioxoisoindolin-5-yl)piperidin-4-yl)acetyl)piperidin-4-yl)-1H-pyrazol-4-yl)pyrazine-2-carboxylate], in the assay with FADD−/− Jurkat cells, the “Necroptosis inhibition assay (Rescue %) 1 μM” value is given as 14.48% and the “Necroptosis inhibition assay (Rescue %) 10 μM” value stood at 17.63%. At MLKL [1], this molecule came in with an equilibrium dissociation constant (Kd) of 13 nM. Besides, on MLKL [2], the “Degradation assay (Degradation %) 1 μM” value worked out at 64.15% and the “Degradation assay (Degradation %) 10 μM” value amounted to 47.75%.

Consider `Nc1ncc(-c2cnn([C@@H]3CCN(CC4CCN(C(=O)CNc5ccc6c(c5)C(=O)N(C5CCC(=O)NC5=O)C6=O)CC4)C3)c2)nc1C(=O)OC(C(=O)Nc1ccc(F)cc1)c1ccccc1` (stereo partly drawn) [TDH-286, 2-((4-fluorophenyl)amino)-2-oxo-1-phenylethyl 3-amino-6-(1-((3R)-1-((1-((2-(2,6-dioxopiperidin-3-yl)-1,3-dioxoisoindolin-5-yl)glycyl)piperidin-4-yl)methyl)pyrrolidin-3-yl)-1H-pyrazol-4-yl)pyrazine-2-carboxylate], for which, in the assay with FADD−/− Jurkat cells, the “Necroptosis inhibition assay (Rescue %) 1 μM” value is 88.45% and the “Necroptosis inhibition assay (Rescue %) 10 μM” value was found to be 79.75%. On MLKL [1], this molecule had a Kd of 12 nM. In addition, at MLKL [2], the “Degradation assay (Degradation %) 1 μM” value is 71.83% and the “Degradation assay (Degradation %) 10 μM” value came to 71.94%.
